From ChEMBL document CHEMBL1201862, “PubChem BioAssay data set” (2004)
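Interpolation was linear, between the two tested concentrations surrounding the appropriate level; five concentrations were tested over 48 hours in 96-well plates. GI50: concentration for 50% inhibition of growth.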 Calls of active or inactive are those of the source. Rule as the data show it: active = GI50 up to about 1.1 µM and inactive = higher.

Key:
Assay in all cases: inhibition of tumour cell growth, NCI panel, 48 h
ACHN = tested on: ACHN
EKVX = tested on: EKVX
HOP-62 = tested on: HOP-62
HOP-92 = tested on: HOP-92
IGROV-1 = tested on: IGROV-1
MDA-MB-231 = tested on: MDA-MB-231
NCI-H460 = tested on: NCI-H460
NCI/ADR-RES = tested on: NCI/ADR-RES
OVCAR-8 = tested on: OVCAR-8
PC-3 = tested on: PC-3
SF-268 = tested on: SF-268
SF-295 = tested on: SF-295
SK-MEL-2 = tested on: SK-MEL-2
SK-MEL-5 = tested on: SK-MEL-5
SK-OV-3 = tested on: SK-OV-3
UACC-257 = tested on: UACC-257
HL-60 = tested on: HL-60
K562 = tested on: K562
BT-549 = tested on: BT-549

## COP(C)(=O)C1=CCN(C(=O)OCC[Si](C)(C)C)CC1 (stereo not given)
ACHN
  GI50: > 100 µM (inactive)
EKVX
  GI50: > 100 µM (inactive)
HOP-62
  GI50: > 100 µM (inactive)
HOP-92
  GI50: > 100 µM (inactive)
IGROV-1
  GI50: > 100 µM (inactive)
MDA-MB-231
  GI50: > 100 µM (inactive)
NCI-H460
  GI50: > 100 µM (inactive)
NCI/ADR-RES
  GI50: > 100 µM (inactive)
OVCAR-8
  GI50: > 100 µM (inactive)
PC-3
  GI50: > 100 µM (inactive)
SF-268
  GI50: > 100 µM (inactive)
SF-295
  GI50: > 100 µM (inactive)
SK-MEL-2
  GI50: > 100 µM (inactive)
SK-MEL-5
  GI50: > 100 µM (inactive)
SK-OV-3
  GI50: > 100 µM (inactive)
UACC-257
  GI50: > 100 µM (inactive)

## COC1(OC)N=C(N)C2(C#N)/C(=N/N(C)C)CC(C)C12C#N (stereo not given)
ACHN
  GI50: > 100 µM (inactive)
EKVX
  GI50: > 100 µM (inactive)
HL-60
  GI50: > 100 µM (inactive)
HOP-62
  GI50: > 100 µM (inactive)
HOP-92
  GI50: > 100 µM (inactive)
IGROV-1
  GI50: > 100 µM (inactive)
K562
  GI50: > 100 µM (inactive)
MDA-MB-231
  GI50: > 100 µM (inactive)
NCI/ADR-RES
  GI50: > 100 µM (inactive)
OVCAR-8
  GI50: > 100 µM (inactive)
PC-3
  GI50: > 100 µM (inactive)
SF-268
  GI50: > 100 µM (inactive)
SF-295
  GI50: > 100 µM (inactive)
SK-MEL-2
  GI50: > 100 µM (inactive)
SK-MEL-5
  GI50: > 100 µM (inactive)
SK-OV-3
  GI50: > 100 µM (inactive)
UACC-257
  GI50: > 100 µM (inactive)

## COc1ccc(-c2ccc(C(=O)C=P(c3ccccc3)(c3ccccc3)c3ccccc3)cc2)cc1
ACHN
  GI50: 13.3 µM (inactive)
EKVX
  GI50: 6.59 µM (inactive)
HL-60
  GI50: 3.94 µM (inactive)
HOP-62
  GI50: 17.9 µM (inactive)
HOP-92
  GI50: 4.72 µM (inactive)
K562
  GI50: 5 µM (inactive)
MDA-MB-231
  GI50: 15.9 µM (inactive)
NCI-H460
  GI50: 8.13 µM (inactive)
NCI/ADR-RES
  GI50: 13 µM (inactive)
PC-3
  GI50: 7.55 µM (inactive)
SF-268
  GI50: 24.3 µM (inactive)
SF-295
  GI50: 10.4 µM (inactive)
SK-MEL-5
  GI50: 9.64 µM (inactive)
SK-OV-3
  GI50: 16.9 µM (inactive)
UACC-257
  GI50: 17.7 µM (inactive)

## O[C@@]12Cc3c([nH]c4ccccc34)[C@@H]3Oc4c(-c5ccccc5)ccc5c4[C@@]31CCN(CC1CC1)[C@@H]2C5
ACHN
  GI50: 1.44 µM (inactive)
BT-549
  GI50: 10.8 µM (inactive)
EKVX
  GI50: 2.01 µM (inactive)
HL-60
  GI50: 2.06 µM (inactive)
HOP-62
  GI50: 1.51 µM (inactive)
HOP-92
  GI50: 5.19 µM (inactive)
IGROV-1
  GI50: 4.07 µM (inactive)
K562
  GI50: 2.33 µM (inactive)
NCI-H460
  GI50: 1.72 µM (inactive)
NCI/ADR-RES
  GI50: 2.51 µM (inactive)
OVCAR-8
  GI50: 2.22 µM (inactive)
PC-3
  GI50: 1.84 µM (inactive)
SF-268
  GI50: 3.42 µM (inactive)
SF-295
  GI50: 1.69 µM (inactive)
SK-MEL-2
  GI50: 1.84 µM (inactive)
SK-MEL-5
  GI50: 1.83 µM (inactive)
SK-OV-3
  GI50: 2.95 µM (inactive)
UACC-257
  GI50: 1.84 µM (inactive)

## O=C(O)Cc1ccc2c(c1)/C(=C1/Nc3ccccc3C1=O)C(=O)N2
ACHN
  GI50: 32.5 µM (inactive)
BT-549
  GI50: 44.5 µM (inactive)
EKVX
  GI50: 26.2 µM (inactive)
HOP-62
  GI50: 51.8 µM (inactive)
IGROV-1
  GI50: 0.355 µM (active)
K562
  GI50: 19.2 µM (inactive)
MDA-MB-231
  GI50: > 100 µM (inactive)
NCI-H460
  GI50: 56.2 µM (inactive)
NCI/ADR-RES
  GI50: > 100 µM (inactive)
OVCAR-8
  GI50: 32 µM (inactive)
PC-3
  GI50: 28.6 µM (inactive)
SF-268
  GI50: 58.2 µM (inactive)
SF-295
  GI50: 80.5 µM (inactive)
SK-MEL-2
  GI50: 40.9 µM (inactive)
SK-MEL-5
  GI50: 20.7 µM (inactive)
SK-OV-3
  GI50: 23.4 µM (inactive)
UACC-257
  GI50: 32.3 µM (inactive)

## Nc1ccc(OCCCc2c(-c3ccccc3)[nH]c(N)nc2=O)cc1
ACHN
  GI50: 33.9 µM (inactive)
BT-549
  GI50: 22.5 µM (inactive)
EKVX
  GI50: 0.398 µM (active)
HL-60
  GI50: 86.9 µM (inactive)
HOP-62
  GI50: 20.6 µM (inactive)
IGROV-1
  GI50: 31.3 µM (inactive)
K562
  GI50: 74.5 µM (inactive)
MDA-MB-231
  GI50: 29.9 µM (inactive)
NCI-H460
  GI50: 24.6 µM (inactive)
NCI/ADR-RES
  GI50: > 100 µM (inactive)
OVCAR-8
  GI50: 44.4 µM (inactive)
PC-3
  GI50: 41.7 µM (inactive)
SF-268
  GI50: > 100 µM (inactive)
SF-295
  GI50: 34.8 µM (inactive)
SK-MEL-5
  GI50: 41.1 µM (inactive)
SK-OV-3
  GI50: 21.4 µM (inactive)
UACC-257
  GI50: 80.5 µM (inactive)

## Cc1csc2nc3[nH]ncc3c(=O)n12
ACHN
  GI50: > 100 µM (inactive)
BT-549
  GI50: > 100 µM (inactive)
EKVX
  GI50: > 100 µM (inactive)
HOP-62
  GI50: > 100 µM (inactive)
IGROV-1
  GI50: > 100 µM (inactive)
K562
  GI50: > 100 µM (inactive)
MDA-MB-231
  GI50: > 100 µM (inactive)
NCI-H460
  GI50: > 100 µM (inactive)
NCI/ADR-RES
  GI50: 66.8 µM (inactive)
OVCAR-8
  GI50: > 100 µM (inactive)
PC-3
  GI50: > 100 µM (inactive)
SF-268
  GI50: > 100 µM (inactive)
SF-295
  GI50: > 100 µM (inactive)
SK-MEL-2
  GI50: > 100 µM (inactive)
SK-MEL-5
  GI50: > 100 µM (inactive)
SK-OV-3
  GI50: > 100 µM (inactive)
UACC-257
  GI50: > 100 µM (inactive)

## CC(=O)[C@]1(C)[C@H](C)O[C@](C)(CO)[C@H]1O[Si](C)(C)c1ccccc1
ACHN
  GI50: 46.7 µM (inactive)
EKVX
  GI50: 46.3 µM (inactive)
HL-60
  GI50: 18.4 µM (inactive)
HOP-62
  GI50: > 100 µM (inactive)
HOP-92
  GI50: 11.2 µM (inactive)
IGROV-1
  GI50: 17.1 µM (inactive)
K562
  GI50: 32.8 µM (inactive)
MDA-MB-231
  GI50: 45.5 µM (inactive)
NCI-H460
  GI50: 51.2 µM (inactive)
NCI/ADR-RES
  GI50: 37.3 µM (inactive)
OVCAR-8
  GI50: 48 µM (inactive)
PC-3
  GI50: 45.5 µM (inactive)
SF-268
  GI50: 54.5 µM (inactive)
SF-295
  GI50: 53 µM (inactive)
SK-MEL-2
  GI50: > 100 µM (inactive)
SK-MEL-5
  GI50: 33.9 µM (inactive)
SK-OV-3
  GI50: > 100 µM (inactive)
UACC-257
  GI50: 23 µM (inactive)

## CNc1ccc([S+]([O-])Nc2ccccc2)cc1 (stereo not given)
ACHN
  GI50: 84.7 µM (inactive)
EKVX
  GI50: 30.5 µM (inactive)
HL-60
  GI50: 26.1 µM (inactive)
HOP-62
  GI50: 58.3 µM (inactive)
IGROV-1
  GI50: 41.6 µM (inactive)
K562
  GI50: 34.8 µM (inactive)
MDA-MB-231
  GI50: 46.1 µM (inactive)
NCI-H460
  GI50: 55.8 µM (inactive)
NCI/ADR-RES
  GI50: 65.6 µM (inactive)
OVCAR-8
  GI50: 56.2 µM (inactive)
SF-268
  GI50: 25.9 µM (inactive)
SF-295
  GI50: 41.5 µM (inactive)
SK-MEL-2
  GI50: 86.3 µM (inactive)
SK-MEL-5
  GI50: 25.8 µM (inactive)
UACC-257
  GI50: 41.1 µM (inactive)

## O=c1[nH]nc(Cc2ccccc2)n1C1CC1
ACHN
  GI50: > 100 µM (inactive)
EKVX
  GI50: > 100 µM (inactive)
HL-60
  GI50: > 100 µM (inactive)
HOP-62
  GI50: > 100 µM (inactive)
HOP-92
  GI50: > 100 µM (inactive)
IGROV-1
  GI50: > 100 µM (inactive)
K562
  GI50: > 100 µM (inactive)
MDA-MB-231
  GI50: > 100 µM (inactive)
NCI-H460
  GI50: > 100 µM (inactive)
NCI/ADR-RES
  GI50: > 100 µM (inactive)
OVCAR-8
  GI50: > 100 µM (inactive)
PC-3
  GI50: > 100 µM (inactive)
SF-268
  GI50: > 100 µM (inactive)
SF-295
  GI50: > 100 µM (inactive)
SK-MEL-5
  GI50: > 100 µM (inactive)
SK-OV-3
  GI50: > 100 µM (inactive)
UACC-257
  GI50: > 100 µM (inactive)

## CC1(C)CC2(C)OC(=N)C1(C#N)C2(C#N)C#N (stereo not given)
ACHN
  GI50: 7.64 µM (inactive)
EKVX
  GI50: 5.02 µM (inactive)
HL-60
  GI50: 2.98 µM (inactive)
HOP-92
  GI50: 1.57 µM (inactive)
IGROV-1
  GI50: 15 µM (inactive)
K562
  GI50: 6.93 µM (inactive)
MDA-MB-231
  GI50: 8.83 µM (inactive)
NCI/ADR-RES
  GI50: 13 µM (inactive)
OVCAR-8
  GI50: 18.2 µM (inactive)
PC-3
  GI50: 16.1 µM (inactive)
SF-268
  GI50: 15.6 µM (inactive)
SF-295
  GI50: 16.3 µM (inactive)
SK-MEL-2
  GI50: 17.4 µM (inactive)
SK-MEL-5
  GI50: 8.83 µM (inactive)
SK-OV-3
  GI50: 53.1 µM (inactive)
UACC-257
  GI50: 7.4 µM (inactive)

## O=C(O)c1cc(-c2ccc3c(O)c(O)ccc3c2)ccc1O
ACHN
  GI50: > 75 µM (inactive)
EKVX
  GI50: > 75 µM (inactive)
HL-60
  GI50: 16.8 µM (inactive)
HOP-62
  GI50: > 75 µM (inactive)
IGROV-1
  GI50: 40.5 µM (inactive)
K562
  GI50: 13.1 µM (inactive)
MDA-MB-231
  GI50: 26.1 µM (inactive)
NCI-H460
  GI50: > 7.5 µM (inactive)
NCI/ADR-RES
  GI50: 33.6 µM (inactive)
OVCAR-8
  GI50: 23.1 µM (inactive)
PC-3
  GI50: > 75 µM (inactive)
SF-268
  GI50: > 75 µM (inactive)
SF-295
  GI50: 16.1 µM (inactive)
SK-MEL-2
  GI50: > 75 µM (inactive)
SK-MEL-5
  GI50: 34.2 µM (inactive)
SK-OV-3
  GI50: > 75 µM (inactive)
UACC-257
  GI50: 68.4 µM (inactive)
